Where a name gives a salt, the structure may show the parent alone.
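Further: biochemical enzyme reaction, 2′3′-cGAMP product measured by RapidFire mass spectrometry (MRM) normalised to c-di-UMP internal standard, inhibition of product formation relative to high and low control wells.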

Chain of human CGAS (157-522) (Q8N884 157-522): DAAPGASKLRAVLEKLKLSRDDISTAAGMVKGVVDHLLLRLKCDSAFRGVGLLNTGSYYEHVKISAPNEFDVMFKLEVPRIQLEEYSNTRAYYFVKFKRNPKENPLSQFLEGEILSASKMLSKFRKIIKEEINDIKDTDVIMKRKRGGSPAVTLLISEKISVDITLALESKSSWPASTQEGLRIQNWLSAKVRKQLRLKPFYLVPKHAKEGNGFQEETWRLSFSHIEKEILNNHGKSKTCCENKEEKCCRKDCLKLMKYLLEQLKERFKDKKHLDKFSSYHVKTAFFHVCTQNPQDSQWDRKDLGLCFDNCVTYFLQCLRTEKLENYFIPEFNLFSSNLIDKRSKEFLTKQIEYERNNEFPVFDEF

The assay concerns the target human CGAS (157-522) (Homo sapiens, UniProt Q8N884). Description: biochemical.
For the compound `FC(F)(F)c1n[nH]c(-c2nc3ncccn3c2-c2cn[nH]c2)n1` [Example 11, 5-[3-(1H-pyrazol-4-yl)imidazo[1,2-a]pyrimidin-2-yl]-3-(trifluoromethyl)-1H-1,2,4-triazole, trifluoroacetic acid salt], the IC50 was 10 nM.

`CN1Cc2cn3c(-c4cnc[nH]4)c(-c4nc(C(F)(F)F)n[nH]4)nc3nc2C(F)(F)C1` [Example 18, 13,13-difluoro-6-(1H-imidazol-5-yl)-11-methyl-5-[3-(trifluoromethyl)-1H-1,2,4-triazol-5-yl]-2,4,7,11-tetraazatricyclo[7.4.0.0^3,7]trideca-1,3,5,8-tetraene, trifluoroacetic acid salt] had an IC50 of 12.6 nM.

Regarding `CS(=O)(=O)Oc1cnc2nc(-c3nc(C(F)(F)F)n[nH]3)c(-c3cnc[nH]3)n2c1` [Example 20, 3-(1H-Imidazol-5-yl)-2-(3-(trifluoromethyl)-1H-1,2,4-triazol-5-yl)imidazo[1,2-a]pyrimidin-6-yl methanesulfonate], it took 2 nM to reach half-maximal inhibition (IC50).

In the case of `COC(=O)c1ccn2c(-c3cn[nH]c3)c(-c3nc(Br)n[nH]3)nc2n1` [Example 35, methyl 2-(3-bromo-1H-1,2,4-triazol-5-yl)-3-(1H-pyrazol-4-yl)imidazo[1,2-a]pyrimidine-7-carboxylate], the midpoint of inhibition, the IC50, lay at 3.16 nM.

For the compound `COC(=O)c1ccn2c(-c3c[nH]cn3)c(-c3nc(Br)n[nH]3)nc2n1` [Example 36, methyl 2-(3-bromo-1H-1,2,4-triazol-5-yl)-3-(1H-imidazol-4-yl)imidazo[1,2-a]pyrimidine-7-carboxylate], the IC50 is 3.16 nM.

The compound `Brc1n[nH]c(-c2nc3ncccn3c2-c2c[nH]cn2)n1` [Example 37, 3-bromo-5-[3-(1H-imidazol-4-yl)imidazo[1,2-a]pyrimidin-2-yl]-1H-1,2,4-triazole, trifluoroacetic acid salt] showed an IC50 of 3.16 nM.

Consider `CC(C)Oc1ccn2c(-c3c[nH]cn3)c(-c3nc(Br)n[nH]3)nc2n1` [Example 40, 3-bromo-5-[3-(1H-imidazol-4-yl)-7-(propan-2-yloxy)imidazo[1,2-a]pyrimidin-2-yl]-1H-1,2,4-triazole], for which the IC50 was 25.1 nM.

In the case of `FC(F)(F)c1n[nH]c(-c2nc3nc(N4CCOCC4)ccn3c2-c2c[nH]cn2)n1` [Example 42, 4-[3-(1H-imidazol-4-yl)-2-[3-(trifluoromethyl)-1H-1,2,4-triazol-5-yl]imidazo[1,2-a]pyrimidin-7-yl]morpholine], the IC50 is 25.1 nM.

Turning to `CN(C)c1ccn2c(-c3cnc[nH]3)c(-c3nc(C(F)(F)F)n[nH]3)nc2n1` [Example 43], the 50% inhibitory concentration (IC50) was 15.8 nM.

As to `FC(F)(F)c1n[nH]c(-c2nc3ncc(Cl)cn3c2-c2cnc[nH]2)n1` [Example 45, 5-[6-chloro-3-(1H-imidazol-5-yl)imidazo[1,2-a]pyrimidin-2-yl]-3-(trifluoromethyl)-1H-1,2,4-triazole], the half-maximal inhibitory concentration (IC50) is 3.16 nM.

`CCc1nc2nc(-c3nc(C(F)(F)F)n[nH]3)c(-c3cnc[nH]3)n2cc1C` [Example 47, 5-[7-ethyl-3-(1H-imidazol-5-yl)-6-methylimidazo[1,2-a]pyrimidin-2-yl]-3-(trifluoromethyl)-1H-1,2,4-triazole] showed an IC50 of 1.58 nM.

For the compound `FC(F)(F)c1n[nH]c(-c2nc3nc4c(cn3c2-c2cnc[nH]2)CCO4)n1` [Example 48, 12-(1H-imidazol-5-yl)-11-[3-(trifluoromethyl)-1H-1,2,4-triazol-5-yl]-6-oxa-1,8,10-triazatricyclo[7.3.0.0^3,^7]dodeca-2,7,9,11-tetraene], half-maximal inhibition (IC50) was put at 2 nM.

The compound `COc1cc(OC)n2c(-c3c[nH]cn3)c(-c3nc(C(F)(F)F)n[nH]3)nc2n1` [Example 49, 5-[3-(1H-imidazol-4-yl)-5,7-dimethoxyimidazo[1,2-a]pyrimidin-2-yl]-3-(trifluoromethyl)-1H-1,2,4-triazole] gave an IC50 of 12.6 nM.

In the case of `COc1cn2c(-c3c[nH]cn3)c(-c3nc(C(F)(F)F)n[nH]3)nc2nc1C` [Example 51, 5-[3-(1H-imidazol-4-yl)-6-methoxy-7-methylimidazo[1,2-a]pyrimidin-2-yl]-3-(trifluoromethyl)-1H-1,2,4-triazole], half-maximal inhibition (IC50) was put at 10 nM.

Compound `Cc1cn2c(-c3cnc[nH]3)c(-c3nc(C(F)(F)F)n[nH]3)nc2nc1C` [Example 52, 5-[3-(1H-imidazol-5-yl)-6,7-dimethylimidazo[1,2-a]pyrimidin-2-yl]-3-(trifluoromethyl)-1H-1,2,4-triazole] gave an IC50 of 5.01 nM.

Compound `OC1CCN(c2ccn3c(-c4cnc[nH]4)c(-c4nc(C(F)(F)F)n[nH]4)nc3n2)C1` (stereo not drawn) [Example 53, 1-[3-(1H-imidazol-5-yl)-2-[3-(trifluoromethyl)-1H-1,2,4-triazol-5-yl]imidazo[1,2-a]pyrimidin-7-yl]pyrrolidin-3-ol] gave a half-inhibitory concentration (IC50) of 15.8 nM.

Compound `Cc1cnc2nc(-c3nc(C(F)(F)F)n[nH]3)c(-c3cnc[nH]3)n2c1` [Example 54, 5-[3-(1H-imidazol-5-yl)-6-methylimidazo[1,2-a]pyrimidin-2-yl]-3-(trifluoromethyl)-1H-1,2,4-triazole] had an IC50 of 6.31 nM.

With `OC1CCCN(c2ccn3c(-c4cnc[nH]4)c(-c4nc(C(F)(F)F)n[nH]4)nc3n2)C1` (stereo not drawn) [Example 56, 1-[3-(1H-imidazol-5-yl)-2-[3-(trifluoromethyl)-1H-1,2,4-triazol-5-yl]imidazo[1,2-a]pyrimidin-7-yl]piperidin-3-ol], the IC50 was 20 nM.

The compound `COc1nc2nc(-c3nc(C(F)(F)F)n[nH]3)c(-c3cnc[nH]3)n2cc1C` [Example 59, 5-[3-(1H-imidazol-5-yl)-7-methoxy-6-methylimidazo[1,2-a]pyrimidin-2-yl]-3-(trifluoromethyl)-1H-1,2,4-triazole] gave an IC50 of 12.6 nM.

On to `Oc1cnc2nc(-c3nc(C(F)(F)F)n[nH]3)c(-c3cnc[nH]3)n2c1` [Example 60, 3-(1H-imidazol-5-yl)-2-[3-(trifluoromethyl)-1H-1,2,4-triazol-5-yl]imidazo[1,2-a]pyrimidin-6-ol], for which the IC50 was 0.794 nM.

`O=C(O)Cc1cnc2nc(-c3nc(C(F)(F)F)n[nH]3)c(-c3cnc[nH]3)n2c1` [Example 92, 2-[3-(1H-imidazol-5-yl)-2-[3-(trifluoromethyl)-1H-1,2,4-triazol-5-yl]imidazo[1,2-a]pyrimidin-6-yl]acetic acid] showed an IC50 of 10 nM.

`CC(C)(C)CNC(=O)c1cnc2nc(-c3nc(C(F)(F)F)n[nH]3)c(-c3cnc[nH]3)n2c1` [Example 94, N-(2,2-dimethylpropyl)-3-(1H-imidazol-5-yl)-2-[3-(trifluoromethyl)-1H-1,2,4-triazol-5-yl]imidazo[1,2-a]pyrimidine-6-carboxamide] showed a concentration for half-maximal inhibition (IC50) of 1580 nM.

For `FC(F)(F)c1ccn2c(-c3cnc[nH]3)c(-c3ncn[nH]3)nc2n1` [Example 97, 5-[3-(1H-imidazol-5-yl)-7-(trifluoromethyl)imidazo[1,2-a]pyrimidin-2-yl]-1H-1,2,4-triazole], the IC50 is 7940 nM.

The compound `Cc1n[nH]c(-c2nc3nc(C(F)(F)F)ccn3c2-c2cnc[nH]2)n1` [Example 98, 5-[3-(1H-imidazol-5-yl)-7-(trifluoromethyl)imidazo[1,2-a]pyrimidin-2-yl]-3-methyl-1H-1,2,4-triazole] had an IC50 of 794 nM.

(Values after patent publication US12247033B2, “Triazole-substituted imidazo[1,2-a]pyrimidines as cGAS inhibitors” (GlaxoSmithKline Intellectual Property Development Limited, priority 2022, dated 2025).)
